These results are taken from article PMC8619001, “Discovery of New Ginsenol-Like Compounds with High Antiviral Activity” (Molecules, 2021).

The test system of the experiment is influenza virus A/Puerto Rico/8/34 (H1N1), GS-R virus. The experiment is described as follows: microbe, parasite or virus in culture. The class given is cell-based.

As to `CC(=O)NC12CC(C)(C)C3CCC1(C)CCCC32C` [Compound 1a, (1S,3aR,4R,7aS)-N-(2,2,4,7a-tetramethyloctahydro-1,4-etanoinden-3a-yl)-acetamide], the “Fold increase of IC50 versus virus passaged without GS” value is reported as “almost five-fold higher”. Further, where the note is “unidentified influenza virus, H1N1, MDCK, read-out: IC50 to GS”, the IC50 was determined as 106 µM.
